The target of assay [1] is T1, 5-lipoxygenase (Cavia porcellus, UniProt A0A286X958).
T1 sequence (A0A286X958 1-674): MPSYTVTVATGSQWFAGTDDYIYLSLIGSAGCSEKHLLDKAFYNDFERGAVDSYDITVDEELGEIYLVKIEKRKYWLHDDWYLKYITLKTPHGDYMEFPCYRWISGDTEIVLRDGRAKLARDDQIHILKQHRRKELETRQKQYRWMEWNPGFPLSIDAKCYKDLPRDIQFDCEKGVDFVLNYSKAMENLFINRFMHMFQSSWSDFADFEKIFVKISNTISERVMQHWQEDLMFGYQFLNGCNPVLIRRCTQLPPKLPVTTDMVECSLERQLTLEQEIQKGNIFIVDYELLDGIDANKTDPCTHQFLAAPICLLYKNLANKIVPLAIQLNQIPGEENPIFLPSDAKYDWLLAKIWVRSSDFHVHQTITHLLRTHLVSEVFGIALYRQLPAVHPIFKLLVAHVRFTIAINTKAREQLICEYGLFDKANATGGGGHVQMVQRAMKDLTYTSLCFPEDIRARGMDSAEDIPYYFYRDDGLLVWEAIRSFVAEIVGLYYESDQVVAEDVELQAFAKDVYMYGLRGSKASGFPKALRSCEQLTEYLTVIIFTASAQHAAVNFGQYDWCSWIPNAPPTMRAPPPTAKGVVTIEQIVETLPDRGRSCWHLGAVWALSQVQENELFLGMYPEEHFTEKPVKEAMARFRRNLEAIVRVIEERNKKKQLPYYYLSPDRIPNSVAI
Description: Enzyme assay using the 105,000 x g supernate of sonicated polymorphonuclear leukocytes: production of 5-HETE, 5,12-diHETE and LTB. Type of assay: biochemical. The following applies: supernate enzyme of guinea pig polymorphonuclear leukocytes, 5 min at 30°C, 1 mM calcium chloride, read-out: concentration for a 50% inhibition of 5-lipoxygenase, i.e. IC50. How it is done:
Further, in another assay system, the inhibitory activity of compounds of the present invention on 5-lipoxygenase only was also evaluated by using an enzyme prepared from polymorphonuclear leukocytes of guinea pig. Guinea pig was treated by casein and harvested polymcrphonuclear leukocytes from cavity were sonicated, followed by the centrifugation at 105,000 x g. The supernate was used as an enzyme throughout this work. The supernate (100 - 500 µg of protein) was incubated for 5 minutes at 30°C with [^14C] arachidonic acid and 1 mM calcium chloride in the presence or in the absence of test compound. The reaction was terminated by the addition of ether.

The target in assay [2] is T1, 5-lipoxygenase. Kind of assay: Screening assay using polymorphonuclear leukocytes: production of 5-HETE from [14C] arachidonic acid. To be noted: intact polymorphonuclear leukocytes from guinea pig, 5 min preincubation and 5 min incubation at 37°C, read-out: concentration for 50% inhibition on 5-lipoxygenase. Type of assay: cell-based. How it is done:
The experiments for screening using polymorphonuclear leukocytes were carried out as follows: The reaction mixture (0.1 ml) containing 5 µmole of potassium phosphate at pE 7.4, 0.1 µmole of calcium chloride, polymorphonuclear leukocytes prepared from guinea pigs (4 x 10^7 cells) and test compound, was preincubated for 5 minutes at 37°C. The reaction was started by the addition of [^14C) arachidonic acid (2.2 x 10^5 dpm, 1.8 nmole), followed by the incubation at 37°C for 5 minutes. The reaction was terminated by the addition of 0.3 ml of a mixture of ether/methanol/lM citric acid (30/4/1). The organic phase (20 µl) was applied to silica gel plate. Thin layer chromatography was performed to separate each product with solvent system of ether/petroleum ether/acetic acid (85/15/0.1).
Activity of 5-lipoxygenase and cyclooxygenase were calculated from the measurements of the production of 5-HETE, and 12L-hydroxy-5,8,lC-heptatrienoic acid (i.e. HHT) or thromboxane B2 (i.e. TXB2), respectively [it has been known that HHT and TXB2 are the last products of the system concerning cyclooxygenase in the arachidonate cascade]. The concentrations for 50% inhibitions on 5-lipoxygenase and on cyclooxygenase were evaluated by using the concentration of compounds of the present invention required 50% inhibitions on the productions of 5-HETE, and HHT or TXB2, respectively.

Data on four compounds can be found in patent EP0079141A1, “Aminoresorcinol derivatives” (ONO PHARMACEUTICAL CO., LTD., priority 1981, dated 1983).

The structures appear in SMILES notation. Counter-ions that a name gives are not always drawn.

With `Nc1c(O)c(Cl)cc(C(=O)c2ccc(Cl)cc2)c1O` [2-Amino-4-chloro-6-(4-chlorobenzoyl)resorcinol hydrochloride], at 5-lipoxygenase [1], the IC50 turned out to be 2630 nM. As to `COC(c1ccc(Cl)cc1)c1cc(Cl)c(O)c(N)c1O` (centres unmarked) [2-Amino-4-chloro-6-(a-methoxy-4-chlorobenzyl)resorcinol hydrochloride], the IC50 at 5-lipoxygenase [1] worked out at 2000 nM. The same measure, in the same setting: to `Nc1cc(C(=O)c2ccccc2)c(O)cc1O` [4-Amino-6-benzoylresorcinol hydrochloride] belongs 6670 nM. With `Nc1c(O)ccc(C(=O)c2ccccc2)c1O` [2-Amino-6-benzoylresorcinol hydrochloride], the figures for the IC50 at 5-lipoxygenase [1] and at 5-lipoxygenase [2] were 400 nM and 300 nM, respectively.
